Where a name gives a salt, the structure may show the parent alone.
Experiments:
[1] = molecular target: PI3Kα (Homo sapiens (Human), UniProt P42336); assay: Inhibition of PI3Kα (ADP-Glo kinase activity assay, ATP to ADP conversion); format: biochemical; settings: 25 μM PIP2:PS, 60 μM ATP, 30 min reaction, luminescence; for IC50: read-out: PI3Ka IC50
Procedure, shortened: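 Recombinant active PI3Kα (1.1 nM) in HEPES pH 7.5 buffer with 6 mM MgCl2 and 8 mM DTT was preincubated with compound for 0 or 3 h. The reaction ran for 30 min with 25 µM PIP2:PS and 60 µM ATP, and ADP formation was read by ADP-Glo luminescence. IC50 came from a 12-point, 1:3 series fitted with a 4-parameter model, bottom fixed to reference inhibitor controls and top floating.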

[2] = molecular target: mTor kinase (Homo sapiens (Human), UniProt P42345); assay: mTor assay (33P-ATP filter-binding kinase assay); format: biochemical; settings: 2 hours at room temperature
Description: The substrate was prepared in base reaction buffer (20 mM Hepes (pH 7.5), 10 mM MgCl2, 1 mM EGTA, 0.02% Brij35, 0.02 mg/ml BSA, 0.1 mM Na3VO4, 2 mM DTT, 1% DMSO), and required cofactors were added to the substrate solution. The mTor kinase was delivered into the substrate solution, and the solution was gently mixed. Testing compounds were dissolved in 100% DMSO to specific concentration. The serial dilution was conducted by Integra Viaflo Assist in DMSO. The compounds were delivered into the kinase reaction mixture by Acoustic technology (Echo550; nanoliter range), and the reaction mixture was incubated for 20 min at room temperature. Then, 33P-ATP (Specific activity 10 μCi/μl) was delivered into the reaction mixture to initiate the reaction. The reaction mixture was incubated for 2 hours at room temperature. Radioactivity was detected by a filter-binding method. Kinase activity data were expressed as the percent remaining kinase activity in test samples compared to vehicle (dimethyl sulfoxide) reactions. IC50 values and curve fits were obtained using Prism (GraphPad Software).

[3] = test system: (Ser-473) pAKT in B103 (Rat Neuroblastoma) cells; assay: pAKT protocol: loss of (Ser-473) pAKT by AlphaScreen in insulin-stimulated B103 cells; format: cell-based; settings: (Ser-473) pAKT/total AKT IC50, 2-hour pretreatment, 2.5 μg/mL insulin 20 minutes
Description: Inhibition of the PI3K-AKT-mTOR pathway was measured by quantifying the loss of (Ser-473) pAKT using AlphaScreen (Perkin Elmer). B103 (Rat Neuroblastoma) cells were seeded in serum containing medium (High Glucose DMEM (-Phenol Red)+10% FBS+2× Glutamax+1 mM Sodium Pyruvate+10 mM HEPES+1× Non-Essential Amino Acids+1× Pen/Strep) on a 96-well tissue culture treated plate and grown for 20 hours. Cells were then serum starved in serum free medium (High Glucose DMEM (-Phenol Red)+1× Glutamax+1 mM Sodium Pyruvate+1× Pen/Strep) for 6 hours prior to a 2-hour pretreatment with inhibitors of the pathway, including reference inhibitor LY294002. These inhibitors were prepared at a 200× final concentration as a 6-point, 1:3 serial dilution in DMSO series, with DMSO as the 7th point. The inhibitors were then diluted in experimental medium (High Glucose DMEM (-Phenol Red)+1× Glutamax+1 mM Sodium Pyruvate+1× Pen/Strep+25 mM HEPES+0.1% BSA) and combined with the cells at 1× final concentration in 0.5% DMSO. […] Cells were promptly lysed using Perkin Elmer proprietary lysis buffer and the (Ser-473) pAKT and total AKT contained in the lysate was measured by AlphaScreen. In AlphaScreen, donor beads were coated with streptavidin to capture one of the antibodies, which is biotinylated. Acceptor beads were coated with Protein A to immobilize the other antibody. In the presence of target protein, the two antibodies bring the donor and acceptor beads close together, generating signal. The amount of light emission is directly proportional to the amount of target protein present in the sample. For each inhibitor tested: the ratio of measured (Ser-473) pAKT/totalAKT was plotted in GraphPad Prism as a 7-point, non-linear regression, 4-parameter curve with bottom constrained to reference control bottom and unconstrained top anchored to DMSO.

PI3Kα, sequence (P42336 whole entry): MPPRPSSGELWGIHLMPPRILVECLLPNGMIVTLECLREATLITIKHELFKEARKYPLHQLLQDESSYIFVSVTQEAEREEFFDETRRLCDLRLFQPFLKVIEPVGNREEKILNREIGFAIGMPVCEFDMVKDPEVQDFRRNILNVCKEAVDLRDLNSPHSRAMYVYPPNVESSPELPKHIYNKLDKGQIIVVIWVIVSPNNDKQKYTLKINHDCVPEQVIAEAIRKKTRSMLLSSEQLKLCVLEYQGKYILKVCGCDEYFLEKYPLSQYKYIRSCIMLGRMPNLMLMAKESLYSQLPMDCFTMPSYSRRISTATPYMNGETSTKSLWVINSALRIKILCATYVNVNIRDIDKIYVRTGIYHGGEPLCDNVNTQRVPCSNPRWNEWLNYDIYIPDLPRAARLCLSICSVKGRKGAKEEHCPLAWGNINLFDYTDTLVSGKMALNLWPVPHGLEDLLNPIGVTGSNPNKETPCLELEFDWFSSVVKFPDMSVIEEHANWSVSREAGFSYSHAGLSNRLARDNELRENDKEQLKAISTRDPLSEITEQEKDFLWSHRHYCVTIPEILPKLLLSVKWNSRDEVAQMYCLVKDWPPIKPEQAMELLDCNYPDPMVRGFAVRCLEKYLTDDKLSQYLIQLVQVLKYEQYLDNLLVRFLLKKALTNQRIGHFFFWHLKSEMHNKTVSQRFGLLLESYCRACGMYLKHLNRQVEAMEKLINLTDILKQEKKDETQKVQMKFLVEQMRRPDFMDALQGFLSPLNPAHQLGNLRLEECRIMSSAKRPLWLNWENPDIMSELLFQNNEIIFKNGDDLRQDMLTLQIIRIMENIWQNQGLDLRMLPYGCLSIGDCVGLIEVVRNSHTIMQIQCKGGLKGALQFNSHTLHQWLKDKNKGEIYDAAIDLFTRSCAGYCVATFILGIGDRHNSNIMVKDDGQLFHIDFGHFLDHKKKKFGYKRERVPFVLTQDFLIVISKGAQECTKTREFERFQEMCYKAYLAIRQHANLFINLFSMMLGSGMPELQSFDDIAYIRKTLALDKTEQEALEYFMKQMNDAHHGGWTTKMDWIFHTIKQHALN
PI3Kα, sequence (P27986 whole entry partner): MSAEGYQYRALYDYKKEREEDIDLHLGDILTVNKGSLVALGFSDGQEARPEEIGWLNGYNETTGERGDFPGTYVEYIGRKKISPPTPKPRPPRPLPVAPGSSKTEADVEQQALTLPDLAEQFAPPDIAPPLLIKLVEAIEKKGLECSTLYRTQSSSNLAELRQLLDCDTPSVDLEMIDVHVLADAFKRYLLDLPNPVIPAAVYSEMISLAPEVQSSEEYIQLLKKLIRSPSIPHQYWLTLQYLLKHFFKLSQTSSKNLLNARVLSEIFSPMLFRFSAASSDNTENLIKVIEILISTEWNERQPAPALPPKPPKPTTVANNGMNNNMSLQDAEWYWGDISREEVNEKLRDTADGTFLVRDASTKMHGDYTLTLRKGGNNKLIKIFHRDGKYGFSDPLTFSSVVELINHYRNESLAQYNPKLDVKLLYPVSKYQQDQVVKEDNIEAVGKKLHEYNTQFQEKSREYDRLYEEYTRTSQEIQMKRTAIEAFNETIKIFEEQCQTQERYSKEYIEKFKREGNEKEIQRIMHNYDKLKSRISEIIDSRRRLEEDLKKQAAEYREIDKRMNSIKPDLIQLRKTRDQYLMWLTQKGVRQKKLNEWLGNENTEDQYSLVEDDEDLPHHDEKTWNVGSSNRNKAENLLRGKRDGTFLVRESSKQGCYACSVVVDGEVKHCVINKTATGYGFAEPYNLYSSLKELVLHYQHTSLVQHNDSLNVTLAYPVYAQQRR

| SMILES | PI3Ka IC50 [1] | IC50 [2] | IC50 [3] | IC50 [1] |
| --- | --- | --- | --- | --- |
| Nc1ncc(-c2cc(N3CCOCC3)cc(S(=O)(=O)c3ccc(F)c(Cl)c3)c2)cn1 [Compound 11, 5-(3-((3-chloro-4-fluorophenyl)sulfonyl)-5-morpholinophenyl)pyrimidin-2-amine] | 1.40 µM | 22000 nM | 100 µM | – |
| Nc1ncc(-c2cc(N3CCOCC3)cc(S(=O)(=O)C3CCOCC3)c2)cn1 [Compound 62, 5-(3-morpholino-5-((tetrahydro-2H-pyran-4-yl)sulfonyl)phenyl)pyrimidin-2-amine] | 0.33 µM | 1870 nM | 6.47 µM | – |
| Nc1cc(Cl)c(-c2cc(N3CCOCC3)cc(S(=O)(=O)[C@@H]3CCOC3)c2)cn1 [Compound 107, (R)-4-chloro-5-(3-morpholino-5-((tetrahydrofuran-3-yl)sulfonyl)phenyl)pyridin-2-amine] | 0.067 µM | 4330 nM | 3.7 µM | – |
| Nc1ncc(-c2cc(C(=O)C3CCOCC3)cc(N3CCOCC3)n2)cn1 [Compound 131, (2-(2-aminopyrimidin-5-yl)-6-morpholinopyridin-4-yl)(tetrahydro-2H-pyran-4-yl)methanone] | 0.023 µM | 590 nM | 0.56 µM | – |
| Nc1ncc(-c2cc(N3CCOCC3)cc(S(=O)(=O)c3cccc4c3OCC4)c2)cn1 [Compound 111, 5-(3-((2,3-dihydrobenzofuran-7-yl)sulfonyl)-5-morpholinophenyl)pyrimidin-2-amine] | 0.38 µM | 5400 nM | 14.5 µM | – |
| Nc1ncc(-c2cc(N3CCOCC3)cc(S(=O)(=O)C(F)(F)c3ccccc3)c2)cn1 [Compound 87, 5-(3-((difluoro(phenyl)methyl)sulfonyl)-5-morpholinophenyl)pyrimidin-2-amine] | 0.21 µM | 1440 nM | 1 µM | – |
| CC(=O)Nc1ccc(S(=O)(=O)c2cc(-c3cnc(N)nc3)cc(N3CCOCC3)c2)cc1 [Compound 22, N-(4-((3-(2-aminopyrimidin-5-yl)-5-morpholinophenyl)sulfonyl)phenyl)acetamide] | 2.8 µM | 8690 nM | 39 µM | – |
| CC(=O)N1CCC(S(=O)(=O)c2cc(-c3cnc(N)nc3)cc(N3CCOCC3)c2)C1 (stereo not drawn) [Compound 91, 1-(3-((3-(2-aminopyrimidin-5-yl)-5-morpholinophenyl)sulfonyl)pyrrolidin-1-yl)ethan-1-one] | 0.18 µM | 2580 nM | 7.33 µM | – |
| Nc1ncc(-c2cc(N3CCOCC3)cc(S(=O)(=O)Cc3c[nH]cn3)c2)cn1 [59 (as a TFA salt), 5-(3-(((1H-imidazol-4-yl)methyl)sulfonyl)-5-morpholinophenyl)pyrimidin-2-amine] | 0.46 µM | 4600 nM | 36.1 µM | – |
| CS(=O)(=O)Nc1ccc(CS(=O)(=O)c2cc(-c3cnc(N)nc3)cc(N3CCOCC3)c2)cc1 [57 (as a TFA salt), N-(4-(((3-(2-aminopyrimidin-5-yl)-5-morpholinophenyl)sulfonyl)methyl)phenyl) methanesulfonamide] | – | 3440 nM | 19.8 µM | 480 nM |
| CC(=O)N1CC(S(=O)(=O)c2cc(-c3cnc(N)nc3)cc(N3CCOCC3)c2)C1 [Compound 68, 1-(3-((3-(2-aminopyrimidin-5-yl)-5-morpholinophenyl)sulfonyl)azetidin-1-yl)ethan-1-one] | 0.047 µM | 1210 nM | 4.66 µM | – |
| Nc1ncc(-c2cc(C(F)(F)c3ccccc3)cc(N3CCOCC3)n2)cn1 [Compound 123, 5-(4-(Difluoro(phenyl)methyl)-6-morpholinopyridin-2-yl)pyrimidin-2-amine] | 0.046 µM | 560 nM | 0.46 µM | – |
| Nc1ncc(-c2cc(N3CCOCC3)cc(S(=O)(=O)Cc3ccc4[nH]ccc4c3)c2)cn1 [Compound 56, 5-(3-(((1H-indol-5-yl)methyl)sulfonyl)-5-morpholinophenyl)pyrimidin-2-amine] | 0.26 µM | 6150 nM | 19.8 µM | – |
| COc1ccc(CS(=O)(=O)c2cc(-c3cnc(N)nc3)cc(N3CCOCC3)c2)cc1 [Compound 28, 5-(3-((4-methoxybenzyl)sulfonyl)-5-morpholinophenyl)pyrimidin-2-amine] | – | 7900 nM | 13 µM | 370 nM |
| N#Cc1cccc(S(=O)(=O)c2cc(-c3cnc(N)nc3)cc(N3CCOCC3)c2)c1 [Compound 13, 3-((3-(2-aminopyrimidin-5-yl)-5-morpholinophenyl)sulfonyl)benzonitrile] | 0.91 µM | 10000 nM | 28.6 µM | – |
| Nc1ncc(-c2cc(OC3CN(C(=O)C4CC4)C3)cc(N3CCOCC3)n2)cn1 [Compound 129, (3-((2-(2-aminopyrimidin-5-yl)-6-morpholinopyridin-4-yl)oxy)azetidin-1-yl)(cyclopropyl)methanone] | 0.034 µM | 2950 nM | 3.46 µM | – |
| Nc1ncc(-c2cc(C(F)(F)C3CCOCC3)cc(N3CCOCC3)n2)cn1 [Compound 133, 5-(4-(difluoro(tetrahydro-2H-pyran-4-yl)methyl)-6-morpholinopyridin-2-yl)pyrimidin-2-amine] | 0.012 µM | 440 nM | 0.4 µM | – |
| Nc1ncc(-c2cc(N3CCOCC3)cc(S(=O)(=O)c3ccc(F)cc3)c2)cn1 [Compound 8, 5-(3-((4-fluorophenyl)sulfonyl)-5-morpholinophenyl)pyrimidin-2-amine] | 1.3 µM | 830 nM | 7.62 µM | – |
| Cc1ccccc1Oc1cc(-c2cnc(N)nc2)nc(N2CCOCC2)c1 [Compound 137, 5-(6-morpholino-4-(o-tolyloxy)pyridin-2-yl)pyrimidin-2-amine] | 0.075 µM | 370 nM | 0.45 µM | – |
| N#Cc1cccc(CS(=O)(=O)c2cc(-c3cnc(N)nc3)cc(N3CCOCC3)c2)c1 [Compound 27, 3-(((3-(2-aminopyrimidin-5-yl)-5-morpholinophenyl)sulfonyl)methyl) benzonitrile] | 0.38 µM | 11000 nM | 14 µM | – |
| Nc1ncc(-c2cc(Oc3ccccc3Cl)cc(N3CCOCC3)n2)cn1 [Compound 134, 5-(4-(2-chlorophenoxy)-6-morpholinopyridin-2-yl)pyrimidin-2-amine] | 0.07 µM | 450 nM | 0.38 µM | – |
| CC(=O)Nc1ncc(-c2cc(N3CCOCC3)cc(S(=O)(=O)c3ccccc3)c2)cn1 [Compound 30, N-(5-(3-morpholino-5-(phenylsulfonyl)phenyl)pyrimidin-2-yl)acetamide] | 3.1 µM | 10900 nM | 18 µM | – |
| Nc1ncc(-c2cc(N3CCOCC3)cc(S(=O)(=O)Cc3ccccc3)c2)cn1 [Compound 23, 5-(3-(benzylsulfonyl)-5-morpholinophenyl)pyrimidin-2-amine] | 0.10 µM | 3000 nM | 8.5 µM | – |
| Nc1ncc(-c2cc(N3CCOCC3)cc(S(=O)(=O)Cc3ccc(F)cc3F)c2)cn1 [Compound 26, 5-(3-((2,4-difluorobenzyl)sulfonyl)-5-morpholinophenyl)pyrimidin-2-amine] | 0.27 µM | 5300 nM | 6.2 µM | – |
| Nc1ncc(-c2cc(N3CCOCC3)cc(S(=O)(=O)Cc3ccccc3F)c2)cn1 [Compound 50, 5-(3-((2-fluorobenzyl)sulfonyl)-5-morpholinophenyl)pyrimidin-2-amine] | 0.28 µM | 2980 nM | > 50 µM | – |

Source: patent publication US11492348B2, “Tri-substituted aryl and heteroaryl derivatives as modulators of PI3-kinase and autophagy pathways” (Neuropore Therapies, Inc., priority 2018, dated 2022)
